Usually IC50 stands for the concentration that inhibits the measured activity by half. Higher therefore signals weaker potency in that assay.

Sequence of USP7 (Q93009 whole entry): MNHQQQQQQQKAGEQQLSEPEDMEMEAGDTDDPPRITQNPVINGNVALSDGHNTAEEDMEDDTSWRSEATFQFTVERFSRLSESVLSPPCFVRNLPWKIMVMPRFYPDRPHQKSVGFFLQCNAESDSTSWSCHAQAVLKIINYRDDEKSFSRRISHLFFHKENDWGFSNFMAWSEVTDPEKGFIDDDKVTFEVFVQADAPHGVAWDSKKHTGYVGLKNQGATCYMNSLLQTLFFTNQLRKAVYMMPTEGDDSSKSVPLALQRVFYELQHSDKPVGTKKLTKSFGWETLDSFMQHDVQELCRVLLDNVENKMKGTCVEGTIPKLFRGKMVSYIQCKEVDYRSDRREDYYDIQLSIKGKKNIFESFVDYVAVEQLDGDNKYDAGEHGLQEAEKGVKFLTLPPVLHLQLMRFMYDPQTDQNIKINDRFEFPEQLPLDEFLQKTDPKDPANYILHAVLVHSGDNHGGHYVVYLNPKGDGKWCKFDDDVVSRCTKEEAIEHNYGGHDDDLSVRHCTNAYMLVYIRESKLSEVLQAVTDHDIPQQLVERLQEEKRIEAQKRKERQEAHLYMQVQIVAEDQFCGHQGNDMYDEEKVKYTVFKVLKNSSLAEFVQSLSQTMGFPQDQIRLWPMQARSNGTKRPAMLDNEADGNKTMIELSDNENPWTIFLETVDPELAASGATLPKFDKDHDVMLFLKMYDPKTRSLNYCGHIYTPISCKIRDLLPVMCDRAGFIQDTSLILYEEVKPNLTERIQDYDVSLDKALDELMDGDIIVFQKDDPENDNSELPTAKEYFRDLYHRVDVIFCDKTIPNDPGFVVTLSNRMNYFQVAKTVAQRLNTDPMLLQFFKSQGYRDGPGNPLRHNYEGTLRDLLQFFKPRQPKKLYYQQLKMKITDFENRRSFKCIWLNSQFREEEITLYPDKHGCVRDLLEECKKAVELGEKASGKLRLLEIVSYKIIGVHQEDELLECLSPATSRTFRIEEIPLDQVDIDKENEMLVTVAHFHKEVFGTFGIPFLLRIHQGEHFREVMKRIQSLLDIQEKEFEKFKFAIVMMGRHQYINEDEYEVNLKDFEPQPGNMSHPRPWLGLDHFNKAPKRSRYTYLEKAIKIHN

The assay has as its target USP7 (Homo sapiens, UniProt Q93009). In words: USP7 inhibitory potency (Table 1). It counts as biochemical.
As for `CC(=O)NCc1cc2nccc(-c3cc(Cl)cc4c3O[C@@H](c3c5c(nn3C)CCNC5)C4)c2s1` [(R)-N-((7-(5-chloro-2-(2-methyl-4,5,6,7-tetrahydro-2H-pyrazolo[4,3-c]pyridin-3-yl)-2,3-dihydrobenzofuran-7-yl)thieno[3,2-b]pyridin-2-yl)methyl)acetamide], the IC50 is under 1 µM.

On to `CC(C)C(=O)NCc1cc2nccc(-c3cc(Cl)cc4c3O[C@@H](c3onc5c3CNCC5)C4)c2s1` [(R)-N-((7-(5-chloro-2-(4,5,6,7-tetrahydroisoxazolo[4,3-c]pyridin-3-yl)-2,3-dihydrobenzofuran-7-yl)thieno[3,2-b]pyridin-2-yl)methyl)isobutyramide], for which the IC50 was under 1 µM.

On to `NC(=O)c1c[nH]c2nccc(-c3cc(Cl)cc4c3OC(C(=O)N3CCNCC3)C4)c12` (centres unmarked) [4-(5-chloro-2-(piperazine-1-carbonyl)-2,3-dihydrobenzofuran-7-yl)-1H-pyrrolo[2,3-b]pyridine-3-carboxamide], for which the IC50 fell in the range of 1 to 10 µM.

In turn, `O=C(C1Cc2cc(Cl)cc(-c3ccnc4cc(C(F)(F)F)ccc34)c2O1)N1CCNCC1` (centres unmarked) [(5-chloro-7-(7-(trifluoromethyl)quinolin-4-yl)-2,3-dihydrobenzofuran-2-yl)(piperazin-1-yl)methanone] came in with an IC50 of 1 to 10 µM.

As for `CCC(O)c1ccc2c(-c3cc(Cl)cc4c3O[C@@H](C(=O)N3CCNCC3)C4)ccnc2c1` (stereo partly drawn) [((2R)-5-chloro-7-(7-(1-hydroxypropyl)quinolin-4-yl)-2,3-dihydrobenzofuran-2-yl)(piperazin-1-yl)methanone], the IC50 fell in the range of 1 to 10 µM.

`CC(O)c1cc2nccc(-c3cc(Cl)cc4c3O[C@@H](C(=O)N3CCNCC3)C4)c2s1` (stereo partly drawn) [((2R)-5-chloro-7-(2-(1-hydroxyethyl)thieno[3,2-b]pyridin-7-yl)-2,3-dihydrobenzofuran-2-yl)(piperazin-1-yl)methanone] came in with a 50% inhibitory concentration (IC50) of under 1 µM.

`CCC(NC(C)=O)c1cc2nccc(-c3cc(Cl)cc4c3O[C@@H](C(=O)N3CCNCC3)C4)c2s1` (stereo partly drawn) [N-(1-(7-((R)-5-chloro-2-(piperazine-1-carbonyl)-2,3-dihydrobenzofuran-7-yl)thieno[3,2-b]pyridin-2-yl)propyl)acetamide] came in with a concentration for half-maximal inhibition (IC50) of under 1 µM.

Compound `FC(F)(F)c1ccc2c(-c3cc(Cl)cc4c3O[C@@H](c3onc5c3CNCC5)C4)ccnc2c1` [(R)-3-(5-chloro-7-(7-(trifluoromethyl)quinolin-4-yl)-2,3-dihydrobenzofuran-2-yl)-4,5,6,7-tetrahydroisoxazolo[4,3-c]pyridine] came in with a half-inhibitory concentration (IC50) of 1 to 10 µM.

For the compound `CN1CCN(Cc2cc3nccc(-c4cc(Cl)cc5c4O[C@@H](C(=O)N4CCNCC4)C5)c3s2)C1=O` [(R)-1-((7-(5-chloro-2-(piperazine-1-carbonyl)-2,3-dihydrobenzofuran-7-yl)thieno[3,2-b]pyridin-2-yl)methyl)-3-methylimidazolidin-2-one], the IC50 is under 1 µM.

`N#Cc1cc2nccc(-c3cc(Cl)cc4c3O[C@@H](C(=O)N3CCNCC3)C4)c2o1` [(R)-7-(5-chloro-2-(piperazine-1-carbonyl)-2,3-dihydrobenzofuran-7-yl)furo[3,2-b]pyridine-2-carbonitrile] came in with an IC50 of 1 to 10 µM.

Turning to `CC1CC(=O)N(Cc2cc3nccc(-c4cc(Cl)cc5c4O[C@@H](C(=O)N4CCNCC4)C5)c3s2)C1` (stereo partly drawn) [1-((7-((R)-5-chloro-2-(piperazine-1-carbonyl)-2,3-dihydrobenzofuran-7-yl)thieno[3,2-b]pyridin-2-yl)methyl)-4-methylpyrrolidin-2-one], the IC50 was under 1 µM.

The compound `N#Cc1cc2nccc(-c3cc(Cl)cc4c3O[C@@H](C(=O)N3CCNCC3)C4)c2s1` [(R)-7-(5-chloro-2-(piperazine-1-carbonyl)-2,3-dihydrobenzofuran-7-yl)thieno[3,2-b]pyridine-2-carbonitrile] yielded an IC50 of 1 to 10 µM.

For `CN[C@H]1CCCN(C(=O)[C@H]2Cc3cc(Cl)cc(-c4ccnc5ccsc45)c3O2)C1` [((R)-5-chloro-7-(thieno[3,2-b]pyridin-7-yl)-2,3-dihydrobenzofuran-2-yl)((S)-3-(methylamino)piperidin-1-yl)methanone], the 50% inhibitory concentration (IC50) is under 1 µM.

In the case of `O=C([C@@H]1Cc2cc(Cl)cc(-c3ccnc4cc(CO)sc34)c2O1)N1CCNCC1` [(S)-(5-chloro-7-(2-(hydroxymethyl)thieno[3,2-b]pyridin-7-yl)-2,3-dihydrobenzofuran-2-yl)(piperazin-1-yl)methanone], the IC50 was 1 to 10 µM.

On to `O=C(C1Cc2cc(Cl)cc(-c3ccnc4[nH]ccc34)c2O1)N1CCC(N2CCOCC2)CC1` (centres unmarked) [(5-chloro-7-(1H-pyrrolo[2,3-b]pyridin-4-yl)-2,3-dihydrobenzofuran-2-yl)(4-morpholinopiperidin-1-yl)methanone], for which the IC50 lay within 1 to 10 µM.

Consider `CN1CCC(N2CCN(C(=O)C3Cc4cc(Cl)cc(-c5ccnc6[nH]ccc56)c4O3)CC2)CC1` (centres unmarked) [(5-chloro-7-(1H-pyrrolo[2,3-b]pyridin-4-yl)-2,3-dihydrobenzofuran-2-yl)(4-(1-methylpiperidin-4-yl)piperazin-1-yl)methanone], for which the IC50 was in the range of 10 to 30 µM.

Compound `CCC(CO)c1cc2nccc(-c3cc(Cl)cc4c3O[C@@H](C(=O)N3CCNCC3)C4)c2s1` (stereo partly drawn) [((2R)-5-chloro-7-(2-(1-hydroxybutan-2-yl)thieno[3,2-b]pyridin-7-yl)-2,3-dihydrobenzofuran-2-yl)(piperazin-1-yl)methanone] showed an IC50 of under 1 µM.

Compound `CCC(O)c1cc2nccc(-c3cc(Cl)cc4c3O[C@@H](c3onc5c3CNCC5)CC4)c2s1` (stereo partly drawn) [1-(7-((R)-6-chloro-2-(4,5,6,7-tetrahydroisoxazolo[4,3-c]pyridin-3-yl)chroman-8-yl)thieno[3,2-b]pyridin-2-yl)propan-1-ol] had a concentration for half-maximal inhibition (IC50) of under 1 µM.

In the case of `O=C(C1Cc2cc(Cl)cc(-c3ccnc4[nH]ccc34)c2O1)N1CCC(N2CCCCC2)CC1` (centres unmarked) [1,4′-bipiperidin-1′-yl(5-chloro-7-(1H-pyrrolo[2,3-b]pyridin-4-yl)-2,3-dihydrobenzofuran-2-yl)methanone], the concentration for half-maximal inhibition (IC50) fell in the range of 1 to 10 µM.

`O=C(C1Cc2cc(Cl)cc(-c3ccnc4c3CCCC4)c2O1)N1CCNCC1` (centres unmarked) [(5-chloro-7-(5,6,7,8-tetrahydroquinolin-4-yl)-2,3-dihydrobenzofuran-2-yl)(piperazin-1-yl)methanone] showed an IC50 of under 1 µM.

Compound `Clc1cc2c(c(-c3ccnc4cc(Cl)ccc34)c1)O[C@@H](c1[nH]nc3c1CNCC3)C2` [(R)-7-chloro-4-(5-chloro-2-(4,5,6,7-tetrahydro-2H-pyrazolo[4,3-c]pyridin-3-yl)-2,3-dihydrobenzofuran-7-yl)quinoline] gave an IC50 of 1 to 10 µM.

`O=C([C@H]1Cc2cc(Cl)cc(-c3ccnc4cc(CO)sc34)c2O1)N1CCn2c(nnc2C(F)(F)F)C1` [(R)-(5-chloro-7-(2-(hydroxymethyl)thieno[3,2-b]pyridin-7-yl)-2,3-dihydrobenzofuran-2-yl)(3-(trifluoromethyl)-5,6-dihydro-[1,2,4]triazolo[4,3-a]pyrazin-7(8H)-yl)methanone]: the concentration for half-maximal inhibition (IC50) was 1 to 10 µM.

Regarding `OCCN1CCc2noc([C@H]3Cc4cc(Cl)cc(-c5ncnc6ccoc56)c4O3)c2C1` [(R)-2-(3-(5-chloro-7-(furo[3,2-d]pyrimidin-4-yl)-2,3-dihydrobenzofuran-2-yl)-6,7-dihydroisoxazolo[4,3-c]pyridin-5(4H)-yl)ethan-1-ol], the half-inhibitory concentration (IC50) was in the range of 1 to 10 µM.

Consider `CC(=O)N(C)Cc1cc2nccc(-c3cc(Cl)cc4c3O[C@@H](C(=O)N3CCNCC3)C4)c2s1` [(R)-N-((7-(5-chloro-2-(piperazine-1-carbonyl)-2,3-dihydrobenzofuran-7-yl)thieno[3,2-b]pyridin-2-yl)methyl)-N-methylacetamide], for which the IC50 is under 1 µM.

The compound `CCC(N)c1cc2nccc(-c3cc(Cl)cc4c3O[C@@H](c3onc5c3CNCC5)C4)c2s1` (stereo partly drawn) [1-(7-((R)-5-chloro-2-(4,5,6,7-tetrahydroisoxazolo[4,3-c]pyridin-3-yl)-2,3-dihydrobenzofuran-7-yl)thieno[3,2-b]pyridin-2-yl)propan-1-amine] registered a 50% inhibitory concentration (IC50) of 1 to 10 µM.

`CNC1CCN(C(=O)[C@H]2Cc3cc(Cl)cc(-c4ccnc5cc(CO)sc45)c3O2)CC1` [(R)-(5-chloro-7-(2-(hydroxymethyl)thieno[3,2-b]pyridin-7-yl)-2,3-dihydrobenzofuran-2-yl)(4-(methylamino)piperidin-1-yl)methanone]: the IC50 was under 1 µM.

As for `O=C(NCc1ccccc1)c1cc2c(-c3cc(Cl)cc4c3OC(C(=O)N3CCNCC3)C4)ccnc2[nH]1` (centres unmarked) [N-benzyl-4-(5-chloro-2-(piperazine-1-carbonyl)-2,3-dihydrobenzofuran-7-yl)-1H-pyrrolo[2,3-b]pyridine-2-carboxamide], the half-maximal inhibitory concentration (IC50) lay in the range of 1 to 10 µM.

Consider `O=C(Nc1ccc(F)cc1)c1cc2c(-c3cc(Cl)cc4c3OC(C(=O)N3CCNCC3)C4)ccnc2[nH]1` (centres unmarked) [4-(5-chloro-2-(piperazine-1-carbonyl)-2,3-dihydrobenzofuran-7-yl)-N-(4-fluorophenyl)-1H-pyrrolo[2,3-b]pyridine-2-carboxamide], for which the 50% inhibitory concentration (IC50) is 1 to 10 µM.

`C[C@@H]1CNCCN1C(=O)C1Cc2cc(Cl)cc(-c3ccnc4[nH]ccc34)c2O1` (stereo partly drawn) [(5-chloro-7-(1H-pyrrolo[2,3-b]pyridin-4-yl)-2,3-dihydrobenzofuran-2-yl)((R)-2-methylpiperazin-1-yl)methanone] came in with an IC50 of 10 to 30 µM.

With `Cc1ccc(S(=O)(=O)N2Cc3nccc(-c4cc(Cl)cc5c4O[C@@H](c4onc6c4CNCC6)C5)c3C2)cc1` [(R)-3-(5-chloro-7-(6-tosyl-6,7-dihydro-5H-pyrrolo[3,4-b]pyridin-4-yl)-2,3-dihydrobenzofuran-2-yl)-4,5,6,7-tetrahydroisoxazolo[4,3-c]pyridine], the 50% inhibitory concentration (IC50) is 10 to 30 µM.

Consider `O=C(C1Cc2cc(Cl)cc(-c3ccnc(O)c3)c2O1)N1CCNCC1` (centres unmarked) [(5-chloro-7-(2-hydroxypyridin-4-yl)-2,3-dihydrobenzofuran-2-yl)(piperazin-1-yl)methanone], for which the IC50 lay within 1 to 10 µM.

`O=C([C@H]1Cc2cc(Cl)cc(-c3ccnc4cc(CO)oc34)c2O1)N1CCNCC1` [(R)-(5-chloro-7-(2-(hydroxymethyl)furo[3,2-b]pyridin-7-yl)-2,3-dihydrobenzofuran-2-yl)(piperazin-1-yl)methanone]: the IC50 was under 1 µM.

Values taken from patent US20210317134A1, “UBIQUITIN-SPECIFIC-PROCESSING PROTEASE 7 (USP7) MODULATORS AND USES THEREOF” (RAPT THERAPEUTICS, INC., priority 2019, published 2021).
